{"source": "patent US20050148534A1", "about": "“Small molecule compositions and methods for increasing drug efficiency using compositions thereof” (priority 2003, published 2005)", "key": {"[1]": {"molecular_target": "T1, deoxyguanosine kinase (dGK) (Homo sapiens, UniProt Q16854)", "T1 sequence (Q16854 40-277)": "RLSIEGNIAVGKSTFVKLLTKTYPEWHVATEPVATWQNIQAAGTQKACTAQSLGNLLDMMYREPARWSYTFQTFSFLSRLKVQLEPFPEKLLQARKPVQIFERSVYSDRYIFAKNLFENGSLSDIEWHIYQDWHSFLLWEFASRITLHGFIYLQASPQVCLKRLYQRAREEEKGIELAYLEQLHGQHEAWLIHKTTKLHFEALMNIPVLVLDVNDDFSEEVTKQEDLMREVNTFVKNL", "details": "substrate activity; literature (Johansson et al.); cited from earlier work"}, "tubulin": {"tested_on": "tubulin", "test": "Fluorescence-based microtubule polymerization assay (MPA)", "assay_type": "biochemical", "details": "mean percentage of paclitaxel or vinblastine activity; 0.75-10 micromolar", "excerpt": "Drug-linker constructs may further be screened using functional assays predictive of biological activity. […] Tubulin assembly or inhibition thereof may be monitored by fluorescence using the CytoDYNAMIX Screen™ 10 kit available from Cytoskeleton (1830 S. Acoma St., Denver, Colo.). […] Emission is monitored at 405 nm with excitation at 360 nm. […] Tubulin assembly or inhibition may also be monitored by light scattering which is approximated by the apparent absorption at 350 nm. For paclitaxel drug conjugates BSA is employed to prevent aggregation and glycerol, which is a tubulin polymerization enhancer, is omitted from the kit to increase the signal to noise ratio.\nThe assay kit (#BK011) was purchased from Cytoskeleton (Denver, Colo.). The assays were carried out according to the manufacturer's instructions, except that 1 mg/ml BSA (Sigma #A3059) was included in all assays. […] Parent drugs and conjugates were tested at 0.75, 1.5, 3 and 10 micromolar final concentration and results represent a comparison of conjugate and parent drug curves obtained from the linear range of the dose responses."}, "[2]": {"molecular_target": "T2, Human thymidine kinase 1 (TK1) (Homo sapiens, UniProt P04183)", "T2 construct": "His tag (from pET28b(+)) (N); made in house; host or cells: E. coli BL21-codon plus", "T2 sequence (P04183 1-234)": "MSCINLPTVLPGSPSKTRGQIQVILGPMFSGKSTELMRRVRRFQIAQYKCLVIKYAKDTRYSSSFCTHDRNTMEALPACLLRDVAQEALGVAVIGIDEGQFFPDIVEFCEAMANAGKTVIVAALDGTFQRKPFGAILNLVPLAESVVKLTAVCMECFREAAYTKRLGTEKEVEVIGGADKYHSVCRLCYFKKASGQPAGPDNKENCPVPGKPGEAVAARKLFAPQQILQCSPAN", "test": "Thymidine kinase coupled (kinetic) ATP depletion assay", "assay_type": "biochemical", "details": "initial velocity relative to thymidine; 100 μM conjugate", "description": "Thymidine kinase, viral thymidine kinase, TK-1 deoxycytidine kinase, and deoxyguanosine kinase activities are determined by subjecting a first end of a linker used in synthesizing linker-substrate constructs to a first test. The first test may involve observing ADP formation, an obligatory co-product of phospho group transfer from ATP which is catalyzed by the kinase to the C5′ hydroxyl group or its equivalent in the nucleoside or nucleoside analog. Formation of ADP is followed by a coupled enzyme assay well known in the art. ADP, formed from kinase phosphorylation, is used by pyruvate kinase to generate pyruvate from phosphoenolpyruvate which in turn is converted to lactate by lactate dehydrogenase. The lactate results in the consumption of NADH which is followed spectrophotometrically. The rate of nucleoside phosphorylation is then directly related to the rate of decrease in the observed NADH signal.\nTK1 was amplified using PCR with forward primer 5′-[…]-3′ and reverse primer 5′-[…]-3′. The PCR product was digested with Nde I and Hind III. An N-terminal His-tagged TK1 construct, TK1/pET28b(+), was generated by subcloning TK1 into the Nde I and Hind III sites of prokaryotic expression vector pET28b (+) (Novagen, San Diego, Calif.). TK1 was expressed from TK1/pET28b(+) using E. coli strain BL21-codon plus (Stratagene, San Diego, Calif.) and purified by Ni column chromatography.\nA coupled (kinetic) ATP depletion assay was developed to measure thymidine kinase activity. The reaction contained 100 mM Tris HCl, pH 7.5, 20 mM MgCl2, 100 mM KCl, 0.4 mM PEP, 0.2 mM NADH, Pyruvate Kinase (0.7 units)/Lactate Dehydrogenase (1.0 unit) (Sigma #PO294), 2.5-10 μg Thymidine Kinase, 100 μM thymidine or thymidine-drug conjugate in a volume of 75 μl. ATP (5 mM in 25 μl H2O) was added to initiate the reaction and the velocity of ATP depletion was monitored at 340 nm continuously for 15 minutes."}, "[3]": {"molecular_target": "deoxycytidine kinase (dCK) (Homo sapiens, UniProt P27707)", "sequence (P27707 whole entry, species assumed)": "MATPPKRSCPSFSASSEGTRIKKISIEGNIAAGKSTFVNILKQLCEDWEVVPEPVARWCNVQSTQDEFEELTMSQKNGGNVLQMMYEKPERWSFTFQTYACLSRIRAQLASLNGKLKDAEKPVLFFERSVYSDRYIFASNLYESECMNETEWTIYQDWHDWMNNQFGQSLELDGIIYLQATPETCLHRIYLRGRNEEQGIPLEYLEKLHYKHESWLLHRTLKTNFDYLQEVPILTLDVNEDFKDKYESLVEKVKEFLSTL", "details": "substrate activity; literature (Johansson et al.; Eriksson et al.; Wang et al.), source per Table 3; cited from earlier work"}}}
{"smiles": "Nc1nc(Cl)nc2c1ncn2[C@H]1C[C@H](O)[C@@H](CO)O1", "note": "[X = O, R3 = OH, R5 = H, B = 2-Cl-Adenine]", "values": [{"measurement": "dGK", "setting": "[1]", "result": 180}]}
{"smiles": "CC[C@]1(O)C[C@@H]2CN(CCc3c([nH]c4ccccc34)[C@@](C(=O)OC)(c3cc4c(cc3OC)N(C)[C@H]3[C@@](O)(C(=O)NCCOCCOCCOCCn5c(=O)c(C)cn([C@H]6C[C@H](O)[C@@H](CO)O6)c5=O)[C@H](O)[C@]5(CC)C=CCN6CC[C@]43[C@@H]65)C2)C1", "note": "[VBL-3Am-PEG(11)-N3-THY]", "values": [{"measurement": "Ave. MPA Act", "setting": "tubulin", "result": "A (A<60)"}, {"measurement": "Ave. TK1 Kinase Act.", "setting": "[2]", "result": "B (B=20-40)"}]}
{"smiles": "CC[C@]1(O)C[C@@H]2CN(CCc3c([nH]c4ccccc34)[C@@](C(=O)OC)(c3cc4c(cc3OC)N(C)[C@H]3[C@@](O)(C(=O)NCCCCn5c(=O)c(C)cn([C@H]6C[C@H](O)[C@@H](CO)O6)c5=O)[C@H](O)[C@]5(CC)C=CCN6CC[C@]43[C@@H]65)C2)C1", "note": "[VBL-3Am-ALK(4)-N3-THY]", "values": [{"measurement": "Ave. MPA Act", "setting": "tubulin", "result": "C (C>100)"}, {"measurement": "Ave. TK1 Kinase Act.", "setting": "[2]", "result": "B (B=20-40)"}]}
{"smiles": "O=c1[nH]cnc2c1ncn2C1OC(CO)C(O)C1O", "note": "(stereo not shown)", "values": [{"measurement": "dGK", "setting": "[1]", "result": 290}]}
{"smiles": "O=c1[nH]cnc2c1ncn2[C@H]1C[C@H](O)[C@@H](CO)O1", "note": "[dino]", "values": [{"measurement": "dGK", "setting": "[1]", "result": 100}, {"measurement": "dCK", "setting": "[3]", "result": 120}]}
{"smiles": "CC(=O)O[C@@]12CO[C@@H]1C[C@H](O)[C@@]1(C)C(=O)[C@H](OC(=O)NCCOCCn3c(=O)c(C)cn([C@@H]4C[C@H](O)[C@@H](CO)O4)c3=O)C3=C(C)[C@@H](OC(=O)[C@H](O)[C@@H](NC(=O)c4ccccc4)c4ccccc4)C[C@@](O)([C@@H](OC(=O)c4ccccc4)[C@H]21)C3(C)C", "note": "[PXL-10Ca-PEG(5)-N3-αTHY]", "values": [{"measurement": "Ave. MPA Act", "setting": "tubulin", "result": "B (B=60-100)"}, {"measurement": "Ave. TK1 Kinase Act.", "setting": "[2]", "result": "A (A<20)"}]}
{"smiles": "COc1cccc2c1C(=O)c1c(O)c3c(c(O)c1C2=O)C[C@@](O)(C(=O)CO)C[C@@H]3O[C@H]1C[C@H](NCCCN2C(=O)CC(SCCC(=O)NCCOCCOCCOCCn3c(=O)c(C)cn([C@H]4C[C@H](O)[C@@H](CO)O4)c3=O)C2=O)[C@H](O)[C@H](C)O1.O=C(O)C(F)(F)F", "note": "(stereo partly shown) [DOX-3′Alk-[MALaPEG](22)-N3-THY]", "values": [{"measurement": "Ave. TK1 Kinase Act.", "setting": "[2]", "result": "A (A<20)"}]}
{"smiles": "Nc1nc2c(ncn2[C@@H]2O[C@H](CO)[C@@H](O)[C@@H]2O)c(=O)[nH]1", "note": "[AraG]", "values": [{"measurement": "dGK", "setting": "[1]", "result": 180}, {"measurement": "dCK", "setting": "[3]", "result": 6}]}
{"smiles": "Nc1nc2c(ncn2[C@H]2C[C@H](O)[C@@H](CO)O2)c(=O)[nH]1", "note": "[dGuo]", "values": [{"measurement": "dGK", "setting": "[1]", "result": 50}, {"measurement": "dCK", "setting": "[3]", "result": 300}]}
{"smiles": "CC[C@]1(O)C[C@@H]2CN(CCc3c([nH]c4ccccc34)[C@@](C(=O)OC)(c3cc4c(cc3OC)N(C)[C@H]3[C@@](O)(C(=O)NCCCCCCn5c(=O)c(C)cn([C@H]6C[C@H](O)[C@@H](CO)O6)c5=O)[C@H](O)[C@]5(CC)C=CCN6CC[C@]43[C@@H]65)C2)C1", "note": "[VBL-3Am-ALK(6)-N3-THY]", "values": [{"measurement": "Ave. MPA Act", "setting": "tubulin", "result": "B (B=60-100)"}, {"measurement": "Ave. TK1 Kinase Act.", "setting": "[2]", "result": "A (A<20)"}]}
{"smiles": "Nc1ncnc2c1ccn2[C@H]1C[C@H](O)[C@@H](CO)O1", "values": [{"measurement": "dGK", "setting": "[1]", "result": 100}, {"measurement": "dCK", "setting": "[3]", "result": 50}]}
{"smiles": "CC[C@]1(O)C[C@@H]2CN(CCc3c([nH]c4ccccc34)[C@@](C(=O)OC)(c3cc4c(cc3OC)N(C)[C@H]3[C@@](O)(C(=O)NCCOCCn5c(=O)c(C)cn([C@H]6C[C@H](O)[C@@H](CO)O6)c5=O)[C@H](O)[C@]5(CC)C=CCN6CC[C@]43[C@@H]65)C2)C1", "note": "[VBL-3Am-PEG(5)-N3-THY]", "values": [{"measurement": "Ave. MPA Act", "setting": "tubulin", "result": "C (C>100)"}, {"measurement": "Ave. TK1 Kinase Act.", "setting": "[2]", "result": "A (A<20)"}]}
{"smiles": "Nc1nc2c(ncn2C2CC(O)C(CO)C2)c(=O)[nH]1", "note": "(stereo not shown) [X = CH2, R3 = OH, R5 = H, B = Guanine]", "values": [{"measurement": "dGK", "setting": "[1]", "result": 70}]}
{"smiles": "CC(=O)O[C@@]12CO[C@@H]1C[C@H](O)[C@@]1(C)C(=O)[C@H](OC(=O)NCCCCCCn3c(=O)c(C)cn([C@@H]4C[C@H](O)[C@@H](CO)O4)c3=O)C3=C(C)[C@@H](OC(=O)[C@H](O)[C@@H](NC(=O)c4ccccc4)c4ccccc4)C[C@@](O)([C@@H](OC(=O)c4ccccc4)[C@H]21)C3(C)C", "note": "[PXL-10Ca-ALK(6)-N3-αTHY]", "values": [{"measurement": "Ave. MPA Act", "setting": "tubulin", "result": "B (B=60-100)"}, {"measurement": "Ave. TK1 Kinase Act.", "setting": "[2]", "result": "A (A<20)"}]}
{"smiles": "CC[C@]1(O)C[C@@H]2CN(CCc3c([nH]c4ccccc34)[C@@](C(=O)OC)(c3cc4c(cc3OC)N(C)[C@H]3[C@@](O)(C(=O)NCCCn5c(=O)c(C)cn([C@H]6C[C@H](O)[C@@H](CO)O6)c5=O)[C@H](O)[C@]5(CC)C=CCN6CC[C@]43[C@@H]65)C2)C1", "note": "[VBL-3Am-ALK(3)-N3-THY]", "values": [{"measurement": "Ave. MPA Act", "setting": "tubulin", "result": "C (C>100)"}, {"measurement": "Ave. TK1 Kinase Act.", "setting": "[2]", "result": "A (A<20)"}]}
{"smiles": "Nc1ncnc2c1ncn2[C@@H]1O[C@H](CO)[C@@H](O)[C@@H]1O", "note": "[AraA]", "values": [{"measurement": "dGK", "setting": "[1]", "result": 15}, {"measurement": "dCK", "setting": "[3]", "result": 50}]}
{"smiles": "CC(=O)O[C@@]12CO[C@@H]1C[C@H](O)[C@@]1(C)C(=O)[C@H](OC(=O)NCCOCCOCCOCCn3c(=O)c(C)cn([C@@H]4C[C@H](O)[C@@H](CO)O4)c3=O)C3=C(C)[C@@H](OC(=O)[C@H](O)[C@@H](NC(=O)c4ccccc4)c4ccccc4)C[C@@](O)([C@@H](OC(=O)c4ccccc4)[C@H]21)C3(C)C", "note": "[PXL-10Ca-PEG(11)-N3-αTHY]", "values": [{"measurement": "Ave. MPA Act", "setting": "tubulin", "result": "B (B=60-100)"}, {"measurement": "Ave. TK1 Kinase Act.", "setting": "[2]", "result": "A (A<20)"}]}
{"smiles": "Nc1ncnc2c1ncn2C1CC(O)C(CO)O1", "note": "(stereo not shown) [dado]", "values": [{"measurement": "dGK", "setting": "[1]", "result": 100}]}
